Tests used:
[1] = biological target: T1, α-7 nicotinic acetylcholine receptor channel expressed in HEK 293 cells (Rattus norvegicus, UniProt Q05941); assay: Ca2+-sensitive fluorescence-based FLIPR assay, α7 nicotinic ACh receptor channel function (agonist); format: cell-based; settings: Table 1, HEK 293 cells, agonist Ca2+ flux
T1 construct: expressed in transfected cells
In short: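 Potency and efficacy derived from kinetic FLIPR Ca²⁺-flux fluorescence, recorded 3 min after compound addition in Hanks buffer following a 10 s baseline.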

mucosal mast cells = settings: Kageyama-Yahara et al. 2008; cited from earlier work
[2] = FLIPR α7 activity rating (EC50, nM)

T1 sequence (Q05941 23-502): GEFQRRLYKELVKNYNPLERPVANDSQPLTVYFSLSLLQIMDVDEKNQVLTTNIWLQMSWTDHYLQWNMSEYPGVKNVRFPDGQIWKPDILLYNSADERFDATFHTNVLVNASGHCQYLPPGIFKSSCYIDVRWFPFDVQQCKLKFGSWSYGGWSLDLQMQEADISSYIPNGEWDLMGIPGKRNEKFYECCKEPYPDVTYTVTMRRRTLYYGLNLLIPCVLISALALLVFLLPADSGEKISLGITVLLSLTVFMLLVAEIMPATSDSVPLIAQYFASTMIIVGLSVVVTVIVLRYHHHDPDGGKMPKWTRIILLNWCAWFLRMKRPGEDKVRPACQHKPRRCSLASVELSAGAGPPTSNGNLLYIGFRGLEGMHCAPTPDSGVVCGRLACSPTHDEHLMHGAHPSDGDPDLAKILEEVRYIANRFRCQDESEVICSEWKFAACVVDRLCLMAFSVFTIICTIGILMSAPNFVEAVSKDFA

Row | Structure (SMILES) | EC50 [1, 2] | melting point | EC50 ([1]; FLIPR α7 (EC50, nM)) | antigen-induced degranulation of mucosal mast cells (mucosal mast cells)
1 | c1ccc2nc(NC3=NC[C@@]4(CN5CCC4CC5)O3)cnc2c1 [Example 220] | < 100 nM | 212 to 215 °C |  | 
2 | FC(F)COc1cc(NC2=NC[C@@]3(CN4CCC3CC4)O2)ncn1 [Example 233, (R)—N-(6-(2,2-Difluoroethoxy)pyrimidin-4-yl)-4H-1′-azaspiro[oxazole-5,3′-bicyclo[2.2.2]octan]-2-amine] | < 100 nM | 83 to 88 °C |  | 
3 | COc1cccc(-c2cc(NC3=NC[C@@]4(CN5CCC4CC5)O3)ncn2)c1 [Example 238, (R)—N-(6-(3-Methoxyphenyl)pyrimidin-4-yl)-4H-1′-azaspiro[oxazole-5,3′-bicyclo[2.2.2]octan]-2-amine] | < 100 nM | 80 to 85 °C | 16 nM | 
4 | CSc1cnc(NC2=NC[C@@]3(CN4CCC3CC4)O2)cn1 [Example 250, (R)—N-(5-(Methylthio)pyrazin-2-yl)-4H-1′-azaspiro[oxazole-5,3′-bicyclo[2.2.2]octan]-2-amine] | < 100 nM | 155 to 160 °C |  | 
5 | COc1ccc(/C=C2\CCCN=C2c2cccnc2)c(OC)c1 [GTS-21] |  |  |  | inhibits

From patent US8309577B2, “Quinuclidine compounds as α-7 nicotinic acetylcholine receptor ligands” (Bristol-Myers Squibb Company, priority 2008, dated 2012)
